Active and inactive are the calls of the source. The calls are words filed in the database; no cut-off is given here.
Tests used:
Influenza A virus [1] = assay: Antiviral activity against Influenza A virus B/Florida/4/06 infected in MDCK cells MOI 0.01 assessed as inhibition of viral growth pre-infected for 1 hr followed by compound addition and measured 24 hrs post infection by plaque assay; format: functional, organism-based; settings: B/Florida/4/06, MDCK
Nucleoprotein = Nucleoprotein (Influenza A virus (strain A/Wilson-Smith/1933 H1N1), UniProt P15682); assay: Binding affinity to Influenza A virus Nucleoprotein assessed as dissociation constant by MST assay
Influenza A virus [2] = assay: Antiviral activity against Influenza A virus A/WSN/33(H1N1) infected in chicken erythrocytes assessed as reduction in Haemagglutinin level preincubated for 30 mins followed by viral infection and measured after 40 mins; format: functional, organism-based; settings: Erythrocyte, time 70.0 min
Influenza A virus [3] = assay: Antiviral activity against Influenza A virus A/WSN/33(H1N1) infected in MDCK cells MOI 0.1 assessed as reduction in viral titre at 12.5 uM pre-infected with cells for 6 hrs followed by compound addition and measured after 2 hrs post infection by time of addition assay; format: functional, organism-based
Influenza A virus [4] = assay: Antiviral activity against Influenza A virus A/HK/1/68 infected in MDCK cells MOI 0.01 assessed as inhibition of viral growth pre-infected for 1 hr followed by compound addition and measured 24 hrs post infection by plaque assay; format: functional, organism-based; settings: A/HK/1/68, MDCK
[5] = Selectivity index, ratio of CC50 for cytotoxicity against MDCK cells assessed as reduction in cell viability to IC50 for antiviral activity against Influenza A virus A/WSN/33(H1N1) infected in MDCK cells assessed as inhibition of viral growth; format: toxicity, cell-based; settings: dog, read-out: Ratio CC50/IC50
Influenza A virus [6] = assay: Antiviral activity against Influenza A virus A/WSN/33(H1N1) infected in MDCK cells MOI 0.1 assessed as reduction in viral titre at 12.5 uM pre-infected with cells for 6 hrs followed by compound addition and measured after 6 to 8 hrs post infection by time of addition assay; format: functional, organism-based
Influenza A virus [7] = assay: Antiviral activity against Influenza A virus A/WSN/33(H1N1) infected in MDCK cells assessed as reduction in virus-induced cytopathic effect at 12.5 uM pre-infected with cells for 1 hrs followed by compound addition and measured after 2 days by MTT assay; format: functional, organism-based; settings: time 2.0 day
[8] = Cytotoxicity against African green monkey Vero cells assessed as reduction in cell viability incubated for 48 hrs by MTT assay; format: toxicity, cell-based; settings: chlorocebus sabaeus
Influenza A virus [9] = assay: Antiviral activity against Influenza A virus A/WSN/33(H1N1) infected in MDCK cells MOI 0.1 assessed as reduction in viral titre at 12.5 uM pre-infected with cells for 6 hrs followed by compound addition and measured after 4 to 6 hrs post infection by time of addition assay; format: functional; set-up: scale not given: the % may be the effect or the level left
Influenza A virus [10] = assay: Antiviral activity against Influenza A virus A/WSN/33(H1N1) infected in MDCK cells MOI 0.1 assessed as reduction in viral titre at 12 uM pre-infected with cells for 6 hrs followed by compound addition and measured after 2 to 4 hrs post infection by time of addition assay; format: functional, organism-based
Influenza A virus [11] = assay: Antiviral activity against Influenza A virus A/WSN/33(H1N1) infected in MDCK cells MOI 0.1 assessed as inhibition of viral growth at 12.5 uM pre-infected with cells for 6 hrs followed by compound addition and measured after 2 to 4 hrs post infection by time of addition assay; format: functional, organism-based
Influenza A virus [12] = assay: Antiviral activity against Influenza A virus A/PR/8/34 infected in MDCK cells MOI 0.01 assessed as inhibition of viral growth pre-infected for 1 hr followed by compound addition and measured 24 hrs post infection by plaque assay; format: functional, organism-based; settings: A/PR/8/34, MDCK
[13] = Cytotoxicity against MDCK cells assessed as reduction in cell viability incubated for 48 hrs by MTT assay; format: toxicity, cell-based, Canis lupus familiaris; settings: dog
[14] = Selectivity index, ratio of CC50 for cytotoxicity against MDCK cells assessed as reduction in cell viability to IC50 for antiviral activity against Influenza A virus A/PR/8/34 infected in MDCK cells MOI 0.01 assessed as inhibition of viral growth; format: toxicity, cell-based; settings: dog, read-out: Ratio CC50/IC50
[15] = Selectivity index, ratio of CC50 for cytotoxicity against African green monkey Vero cells assessed as reduction in cell viability to IC50 for inhibition of Influenza A virus A/WSN/33(H1N1) Ribonucleoprotein transfected in Vero cells; format: toxicity, cell-based; settings: read-out: Ratio CC50/IC50
[16] = Selectivity index, ratio of CC50 for cytotoxicity against MDCK cells assessed as reduction in cell viability to IC50 for antiviral activity against Influenza A virus A/HK/1/68 infected in MDCK cells MOI 0.01 assessed as inhibition of viral growth; format: toxicity, cell-based; settings: dog, read-out: Ratio CC50/IC50
Influenza A virus [17] = assay: Antiviral activity against Influenza A virus A/WSN/33(H1N1) infected in chicken erythrocytes assessed as reduction in neuraminidase level incubated for 2 hrs; format: functional, organism-based; settings: Erythrocyte
Influenza A virus [18] = assay: Antiviral activity against Influenza A virus A/WSN/33(H1N1) infected in MDCK cells assessed as inhibition of viral growth pre-infected for 1 hr followed by compound addition and measured 24 hrs post infection by plaque assay; format: functional, organism-based
[19] = Selectivity index, ratio of CC50 for cytotoxicity against MDCK cells assessed as reduction in cell viability to IC50 for antiviral activity against Influenza A virus B/Florida/4/06 infected in MDCK cells MOI 0.01 assessed as inhibition of viral growth; format: toxicity, cell-based; settings: dog, read-out: Ratio CC50/IC50
[20] = Inhibition of Influenza A virus A/WSN/33(H1N1) Ribonucleoprotein transfected in Vero cells incubated for 48 hrs by spectrophotometer analysis; format: cell-based
[21] = target: Polymerase acidic protein (Influenza A virus (A/Puerto Rico/8/1934(H1N1)), UniProt P03433); assay: Binding affinity to C-terminal Influenza A virus Polymerase acidic protein assessed as dissociation constant by MST assay

Sequence of Nucleoprotein (P15682 whole entry): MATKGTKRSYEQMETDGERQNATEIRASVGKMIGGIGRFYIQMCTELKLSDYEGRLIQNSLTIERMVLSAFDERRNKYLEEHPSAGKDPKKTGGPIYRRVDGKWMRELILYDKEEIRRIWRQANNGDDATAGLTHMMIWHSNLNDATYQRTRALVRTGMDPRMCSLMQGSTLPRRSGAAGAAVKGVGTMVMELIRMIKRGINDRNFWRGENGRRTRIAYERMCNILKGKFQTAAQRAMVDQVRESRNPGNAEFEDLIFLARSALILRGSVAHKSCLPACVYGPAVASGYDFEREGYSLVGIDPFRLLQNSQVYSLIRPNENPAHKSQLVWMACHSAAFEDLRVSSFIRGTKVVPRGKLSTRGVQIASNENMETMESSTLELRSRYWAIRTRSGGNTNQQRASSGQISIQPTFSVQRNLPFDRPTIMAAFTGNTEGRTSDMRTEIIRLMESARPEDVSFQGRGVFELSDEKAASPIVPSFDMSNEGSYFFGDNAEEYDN

SMILES: O=C(NCCCN1CCOCC1)c1ccccc1Nc1ccnc2ccc(Cl)cc12
- IC50 (Influenza A virus [1]): 3.32 µM
- Kd (Nucleoprotein): 33 µM
- Activity (Influenza A virus [2]): inactive
- Activity (Influenza A virus [3]): Active
- IC50 (Influenza A virus [4]): 3.31 µM
- selectivity ratio [5]: > 16
- Activity (Influenza A virus [6]): inactive
- Activity (Influenza A virus [7]): Active
- CC50 at 48 h [8]: 31.4 µM
- Activity (Influenza A virus [9]): 5%
- Activity (Influenza A virus [10]): Active
- inhibition (Influenza A virus [11]): Active
- IC50 (Influenza A virus [12]): 3.94 µM
- CC50 at 48 h [13]: > 50 µM
- selectivity ratio [14]: > 13
- selectivity ratio [15]: > 3
- selectivity ratio [16]: > 15
- Activity (Influenza A virus [17]): inactive
- IC50 (Influenza A virus [18]): 3.21 µM
- selectivity ratio [19]: > 15
- IC50 [20]: 11.8 µM
- Kd [21]: 28.8 µM

Reference: ChEMBL document CHEMBL5625251, “Anti-influenza virus activities and mechanism of antrafenine analogs” (Eur J Med Chem, 2023)
